In US20250179094A1, “TGF-B INHIBITOR COMPOUND AND USE THEREOF” (Medinno Pharmaceutical Technology (Zhuhai) Co., Ltd., priority 2022, published 2025):
pIC50: −log10 of the molar value.

target: human TGFβR1 (Homo sapiens (Human), UniProt P36897); experiment: TGFβR1 kinase activity assay (ADP-Glo method); format: biochemical; settings: ATP 5 uM, TGFβR1tide substrate, 60 minutes at room temperature
Description: The principle of the activity assay was that TGFβR1 phosphorylates the substrate TGFβR1tide, consuming ATP in the process. […] The specific experimental steps were as follows. Compounds were diluted 4-fold in DMSO in a dilution plate, with the final starting concentration of the compounds being 10 μM, across 10 concentration gradient points. The compounds were then further diluted 50-fold into the kinase reaction buffer and incubated on a shaker for 20 minutes. Kinase was formulated with an enzyme reaction buffer. 2 μl kinase was added to each well of the reaction plate. 1 μl of the compound diluted in buffer was added to each well, and then the plate was sealed with a sealing membrane and centrifuged at 1000 g for 30 seconds, leaving it at room temperature for 10 minutes. Solutions of TGFβR1tide and ATP were prepared with the kinase reaction buffer, and 2 μL of the TGFβR1tide/ATP solution was added to the reaction plate. The plate was sealed with a sealing film and centrifuged at 1000 g for 30 seconds. It was allowed to react at room temperature for 60 minutes. Subsequently, 4 μL of ADP-Glo was transferred to a 384-well reaction plate and centrifuged at 1000 rpm/min for 1 minute, followed by incubation at 25° C. for 40 minutes. Then, 8 μL of Detection solution was transferred to the 384-well reaction plate and centrifuged at 1000 rpm/min for 1 minute, after which it was incubated at 25° C. for 40 minutes. The RLU (Relative Luminescence Unit) signal was read using a BMG microplate reader, which was used to characterize the degree of kinase activity.
3.1 The inhibition rate was calculated as follows: inhibition rate of compound (% inh)=100%−(compound−positive control)/(negative control−positive control)*100%.
The IC50 (half inhibition concentration) of a compound was obtained using the following non-linear fitting equation, wherein data analysis was performed using Graphpad 7.0 software.
X: log value of compound concentration; and Y: inhibition rate (% inhibition)

Chain of human TGFβR1 (P36897 34-503): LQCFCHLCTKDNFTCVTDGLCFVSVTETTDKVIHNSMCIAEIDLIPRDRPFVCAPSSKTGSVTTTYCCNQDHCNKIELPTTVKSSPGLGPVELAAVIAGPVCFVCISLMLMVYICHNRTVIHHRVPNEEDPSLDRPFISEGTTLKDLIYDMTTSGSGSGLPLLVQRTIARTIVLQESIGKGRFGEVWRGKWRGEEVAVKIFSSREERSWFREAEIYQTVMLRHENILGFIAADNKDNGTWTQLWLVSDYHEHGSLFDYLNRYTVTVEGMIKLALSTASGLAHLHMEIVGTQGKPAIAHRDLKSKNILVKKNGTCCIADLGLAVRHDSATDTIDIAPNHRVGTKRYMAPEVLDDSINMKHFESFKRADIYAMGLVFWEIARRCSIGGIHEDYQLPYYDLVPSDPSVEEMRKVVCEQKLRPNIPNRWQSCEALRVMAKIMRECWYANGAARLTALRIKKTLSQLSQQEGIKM

pIC50	Compound
7.68	CC(=O)N1Cc2nc(-c3cc(-c4c(-c5cccc(C)n5)nc5n4CCC5)ccn3)[nH]c2C1 [Compound 1, 1-(2-(4-(2-(6-methylpyridin-2-yl)-6,7-dihydro-5H-pyrrolo[1,2-a]imidazol-3-yl)pyridin-2-yl)-4,6-dihydropyrrolo[3,4-d]imidazol-5(1H)-yl)ethan-1-one]
8.60	Cc1cccc(-c2nn(Cc3ccccn3)cc2-c2ccnc(-c3nc4c([nH]3)CN(S(C)(=O)=O)C4)c2)n1 [Compound 53, 2-[4-(3-(6-Methylpyridin-2-yl)-1-(pyridin-2-ylmethyl)-1H-pyrazol-4-yl)pyridin-2-yl]-5-(methylsulfonyl)-1,4,5,6-tetrahydropyrrolo[3,4-d]imidazole]
8.55	Cc1cccc(-c2nn3c(c2-c2ccnc(-c4nc5c([nH]4)CN(C(=O)C4CCN(C)CC4)C5)c2)CCC3)n1 [Compound 73, (1-Methylpiperidin-4-yl)(2-(4-(2-(6-methylpyridin-2-yl)-5,6-dihydro-4H-pyrrolo[1,2-b]pyrazol-3-yl)pyridin-2-yl)-4,6-dihydropyrrolo[3,4-d]imidazol-5(1H)-yl)ketone]
8.80	Cc1cccc(-c2nn(Cc3ccccc3)cc2-c2ccnc(-c3nc4c([nH]3)CN(S(C)(=O)=O)C4)c2)n1 [Compound 48, 2-[4-(1-Benzyl-3-(6-methylpyridin-2-yl)-1H-pyrazol-4-yl)pyridin-2-yl]-5-(methylsulfonyl)-1,4,5,6-tetrahydropyrrolo[3,4-d]imidazole]
8.14	Cc1cccc(-c2nc3n(c2-c2ccnc(-c4nc5c([nH]4)CN(C(=O)CC#N)C5)c2)CCC3)n1 [Compound 64, 3-(2-(4-(2-(6-Methylpyridin-2-yl)-6,7-dihydro-5H-pyrrolo[1,2-a]imidazol-3-yl)pyridin-2-yl)-4,6-dihydropyrrolo[3,4-d]imidazol-5(1H)-yl)-3-oxopropanenitrile]
8.64	CCN(C)C(=O)N1Cc2nc(-c3cc(-c4c(-c5cccc(C)n5)nc5n4CCC5)ccn3)[nH]c2C1 [Compound 32, N-Ethyl-N-methyl-2-(4-(2-(6-methylpyridin-2-yl)-6,7-dihydro-5H-pyrrolo[1,2-a]imidazol-3-yl)pyridin-2-yl)-4,6-dihydropyrrolo[3,4-d]imidazol-5(1H)-carboxamide]
8.21	Cc1cccc(-c2nn(CC(C)O)cc2-c2ccnc(-c3nc4c([nH]3)CNC4)c2)n1 (centres unmarked) [Compound 44, 3-(3-(6-Methylpyridin-2-yl)-4-(2-(1,4,5,6-tetrahydropyrrolo[3,4-d]imidazol-2-yl)pyridin-4-yl)-1H-pyrazol-1-yl)propan-2-ol]
8.47	Cc1cccc(-c2nn(CC3CC3)cc2-c2ccnc(-c3nc4c([nH]3)CN(S(C)(=O)=O)C4)c2)n1 [Compound 47, 2-[4-(1-(Cyclopropylmethyl)-3-(6-methylpyridin-2-yl)-1H-pyrazol-4-yl)pyridin-2-yl]-5-(methylsulfonyl)-1,4,5,6-tetrahydropyrrolo[3,4-d]imidazole]
7.89	Cc1cccc(-c2n[nH]cc2-c2ccnc(-c3nc4c([nH]3)CNCC4)c2)n1 [Compound 76]
8.37	Cc1cccc(-c2nc3n(c2-c2ccnc(-c4nc5c([nH]4)CN(CC(C)O)C5)c2)CCC3)n1 (centres unmarked) [Compound 12, 1-(2-(4-(2-(6-Methylpyridin-2-yl)-6,7-dihydro-5H-pyrrolo[1,2-a]imidazol-3-yl)pyridin-2-yl)-4,6-dihydropyrrolo[3,4-d]imidazol-5(1H)-yl)propan-2-ol]
7.72	CNC(=O)N1Cc2nc(-c3cc(-c4c(-c5cccc(C)n5)nc5n4CCC5)ccn3)[nH]c2C1 [Compound 28]
8.09	CCS(=O)(=O)N1Cc2nc(-c3cc(-c4c(-c5cccc(C)n5)nn5c4CCC5)ccn3)[nH]c2C1 [Compound 68]
8.25	Cc1cccc(-c2nc3n(c2-c2ccnc(-c4nc5c([nH]4)CNCC5)c2)CCC3)n1 [Compound 75, 2-(4-(2-(6-Methylpyridin-2-yl)-6,7-dihydro-5H-pyrrolo[1,2-a]imidazol-3-yl)pyridin-2-yl)-4,5,6,7-tetrahydro-3H-imidazolo[4,5-c]pyridine]
8.30	Cc1cccc(-c2nn(Cc3ccncc3)cc2-c2ccnc(-c3nc4c([nH]3)CN(S(C)(=O)=O)C4)c2)n1 [Compound 55, 2-[4-(3-(6-Methylpyridin-2-yl)-1-(pyridin-4-ylmethyl)-1H-pyrazol-4-yl)pyridin-2-yl]-5-(methylsulfonyl)-1,4,5,6-tetrahydropyrrolo[3,4-d]imidazole]
8.77	CCN(C)C(=O)N1Cc2nc(-c3cc(-c4c(-c5cccc(C)n5)nn5c4CCC5)ccn3)[nH]c2C1 [Compound 74, N-Ethyl-N-methyl-2-(4-(2-(6-methylpyridin-2-yl)-5,6-dihydro-4H-pyrrolo[1,2-b]pyrazol-3-yl)pyridin-2-yl)-4,6-dihydropyrrolo[3,4-d]imidazole-5(1H)-carboxamide]
8.77	Cc1cccc(-c2nn(C(C)C)cc2-c2ccnc(-c3nc4c([nH]3)CN(S(C)(=O)=O)C4)c2)n1 [Compound 46, 2-[4-(1-Isopropyl-3-(6-methylpyridin-2-yl)-1H-pyrazol-4-yl)pyridin-2-yl]-5-(methylsulfonyl)-1,4,5,6-tetrahydropyrrolo[3,4-d]imidazole]
8.66	Cc1cccc(-c2nc3n(c2-c2ccnc(-c4nc5c([nH]4)CN(C(=O)C4CC(O)C4)C5)c2)CCC3)n1 (centres unmarked) [Compound 10, (3-Hydroxycyclobutyl)(2-(4-(2-(6-methylpyridin-2-yl)-6,7-dihydro-5H-pyrrolo[1,2-a]imidazol-3-yl)pyridin-2-yl)-4,6-dihydropyrrolo[3,4-d]imidazol-5(1H)-yl)ketone]
8.74	CCn1cc(-c2ccnc(-c3nc4c([nH]3)CN(C(=O)N(C)C)C4)c2)c(-c2cccc(C)n2)n1 [Compound 60, 2-(4-(1-Ethyl-3-(6-methylpyridin-2-yl)-1H-pyrazol-4-yl)pyridin-2-yl)-N,N-dimethyl-4,6-dihydropyrrolo[3,4-d]imidazol-5(1H)-carboxamide]
9.15	Cc1cccc(-c2nn3c(c2-c2ccnc(-c4nc5c([nH]4)CN(C(=O)C4CC(O)C4)C5)c2)CCC3)n1 (centres unmarked) [Compound 65, (3-Hydroxycyclobutyl)(2-(4-(2-(6-methylpyridin-2-yl)-5,6-dihydro-4H-pyrrolo[1,2-b]pyrazol-3-yl)pyridin-2-yl)-4,6-dihydropyrrolo[3,4-d]imidazol-5(1H)-yl)ketone]
7.60	Cc1cccc(-c2nc3n(c2-c2ccnc(-c4nc5c([nH]4)CN(C4CCC(O)CC4)C5)c2)CCC3)n1 (centres unmarked) [Compound 25, 4-(2-(4-(2-(6-Methylpyridin-2-yl)-6,7-dihydro-5H-pyrrolo[1,2-a]imidazol-3-yl)pyridin-2-yl)-4,6-dihydropyrrolo[3,4-d]imidazol-5(1H)-yl)cyclohexan-1-ol]
8.68	CCS(=O)(=O)N1Cc2nc(-c3cc(-c4cn(C)nc4-c4cccc(C)n4)ccn3)[nH]c2C1 [Compound 52, 5-(Ethylsulfonyl)-2-[4-(1-methyl-3-(6-methylpyridin-2-yl)-1H-pyrazol-4-yl)pyridin-2-yl]-1,4,5,6-tetrahydropyrrolo[3,4-d]imidazole]
8.66	Cc1cccc(-c2nn(Cc3ccc(F)cc3)cc2-c2ccnc(-c3nc4c([nH]3)CN(S(C)(=O)=O)C4)c2)n1 [Compound 50, 2-[4-(1-(4-Fluorobenzyl)-3-(6-methylpyridin-2-yl)-1H-pyrazol-4-yl)pyridin-2-yl]-5-(methylsulfonyl)-1,4,5,6-tetrahydropyrrolo[3,4-d]imidazole]
8.13	Cc1cccc(-c2nc3n(c2-c2ccnc(-c4nc5c([nH]4)CN(C)C5)c2)CCC3)n1 [Compound 3, 5-methyl-2-(4-(2-(6-methylpyridin-2-yl)-6,7-dihydro-5H-pyrrolo[1,2-a]imidazol-3-yl)pyridin-2-yl)-1,4,5,6-tetrahydropyrrolo[3,4-d]imidazole]
